Results on twelve molecules are retold here after ChEMBL document CHEMBL1828549, “Novel C-4'' modified azithromycin analogs with remarkably enhanced activity against erythromycin-resistant Streptococcus pneumoniae: the synthesis and antimicrobial evaluation” (2011).

Molecules are shown by their SMILES. Values after ≈ are worked out from the molar mass of the structure shown.

What all share (type): functional
Test [1] concerns Streptococcus pneumoniae. In words: Antibacterial activity against erythromycin-resistant Streptococcus pneumoniae AB11 expressing erm and mef gene by the broth microdilution method. On the technique in general: In broth dilution the organism is exposed to a series of concentrations in liquid medium.
Test [2] has as its system Staphylococcus aureus. The experiment in a line: Antibacterial activity against […] Staphylococcus aureus ATCC 29213 by the broth microdilution method.
Test [3] concerns Streptococcus pneumoniae. The experiment in a line: Antibacterial activity against erythromycin-resistant Streptococcus pneumoniae B1 expressing erm gene by the broth microdilution method.
Test [4] relates to Streptococcus pneumoniae. The experiment in a line: Antibacterial activity against erythromycin-susceptible Streptococcus pneumoniae ATCC 49619 by the broth microdilution method.
The test system of test [5] is Staphylococcus aureus. The experiment in a line: Antibacterial activity against erythromycin-susceptible Staphylococcus aureus ATCC 25923 by the broth microdilution method.
The subject of test [6] is Streptococcus pneumoniae. The experiment in a line: Antibacterial activity against erythromycin-resistant Streptococcus pneumoniae A22072 expressing mef gene by the broth microdilution method.
Test [7] relates to Staphylococcus aureus. The experiment in a line: Antibacterial activity against penicillin-resistant Staphylococcus aureus by the broth microdilution method.

With `CC[C@H]1OC(=O)[C@H](C)[C@@H](O[C@H]2C[C@@](C)(OC)[C@@H](OC(=O)NNC(=O)c3ccc(OC)cc3)[C@H](C)O2)[C@H](C)[C@@H](O[C@@H]2O[C@H](C)C[C@H](N(C)C)[C@H]2O)[C@](C)(O)C[C@@H](C)CN(C)[C@H](C)[C@H]2OC(=O)O[C@@]21C`, the minimum inhibitory concentration (MIC) (as a rule, the least concentration at which growth counts as inhibited) in test [1] came to 64 µg/mL (≈ 66.2 µM); in test [2], 32 µg/mL (≈ 33.1 µM); in test [3] it was 16 µg/mL (≈ 16.5 µM); in test [4], 4 µg/mL (≈ 4.14 µM); in test [5] it was 2 µg/mL (≈ 2.07 µM); in test [6] it was 0.25 µg/mL (≈ 0.258 µM). The MIC in test [7] was determined as 8 µg/mL (≈ 8.27 µM).

For the molecule `CC[C@H]1OC(=O)[C@H](C)[C@@H](O[C@H]2C[C@@](C)(OC)[C@@H](OC(=O)NNC(=O)c3ccccc3OC)[C@H](C)O2)[C@H](C)[C@@H](O[C@@H]2O[C@H](C)C[C@H](N(C)C)[C@H]2O)[C@](C)(O)C[C@@H](C)CN(C)[C@H](C)[C@H]2OC(=O)O[C@@]21C`, the minimum inhibitory concentration (MIC) in test [1] stood at 32 µg/mL (≈ 33.1 µM); in test [2], 16 µg/mL (≈ 16.5 µM); in test [3], 8 µg/mL (≈ 8.27 µM); in test [4], 1 µg/mL (≈ 1.03 µM); in test [5], 4 µg/mL (≈ 4.14 µM); in test [6], 0.5 µg/mL (≈ 0.517 µM). The same molecule gave an MIC in test [7] of 16 µg/mL (≈ 16.5 µM).

As to `CC[C@H]1OC(=O)[C@H](C)[C@@H](O[C@H]2C[C@@](C)(OC)[C@@H](OC(=O)NNC(=O)c3ccc(OC)c(OC)c3)[C@H](C)O2)[C@H](C)[C@@H](O[C@@H]2O[C@H](C)C[C@H](N(C)C)[C@H]2O)[C@](C)(O)C[C@@H](C)CN(C)[C@H](C)[C@H]2OC(=O)O[C@@]21C`, the MIC in test [1] was determined as 64 µg/mL (≈ 64.2 µM); in test [2], 4 µg/mL (≈ 4.01 µM); in test [3], 32 µg/mL (≈ 32.1 µM); in test [4], 1 µg/mL (≈ 1 µM); in test [5], 4 µg/mL (≈ 4.01 µM); in test [6], 0.25 µg/mL (≈ 0.251 µM). In addition, in test [7], the MIC came to 1 µg/mL (≈ 1 µM).

`CC[C@H]1OC(=O)[C@H](C)[C@@H](O[C@H]2C[C@@](C)(OC)[C@@H](OC(=O)NNC(=O)c3ccc(F)cc3)[C@H](C)O2)[C@H](C)[C@@H](O[C@@H]2O[C@H](C)C[C@H](N(C)C)[C@H]2O)[C@](C)(O)C[C@@H](C)CN(C)[C@H](C)[C@H]2OC(=O)O[C@@]21C`: the MIC in test [1] is 64 µg/mL (≈ 67 µM); in test [2] it was 32 µg/mL (≈ 33.5 µM); in test [3], 32 µg/mL (≈ 33.5 µM); in test [4], 4 µg/mL (≈ 4.19 µM); in test [5], 4 µg/mL (≈ 4.19 µM); in test [6], 1 µg/mL (≈ 1.05 µM). Moreover, 4 µg/mL (≈ 4.19 µM) was the least that counted as inhibitory in test [7] (MIC).

As to `CC[C@H]1OC(=O)[C@H](C)[C@@H](O[C@H]2C[C@@](C)(OC)[C@@H](OC(=O)NNC(=O)c3ccc(Cl)cc3)[C@H](C)O2)[C@H](C)[C@@H](O[C@@H]2O[C@H](C)C[C@H](N(C)C)[C@H]2O)[C@](C)(O)C[C@@H](C)CN(C)[C@H](C)[C@H]2OC(=O)O[C@@]21C`, the minimal inhibitory concentration (MIC) in test [1] amounted to 64 µg/mL (≈ 65.9 µM); in test [2] it was 4 µg/mL (≈ 4.12 µM); in test [3], 32 µg/mL (≈ 32.9 µM); in test [4], 1 µg/mL (≈ 1.03 µM); in test [5], 2 µg/mL (≈ 2.06 µM); in test [6], 0.25 µg/mL (≈ 0.257 µM). The lowest concentration to inhibit growth in test [7] (MIC) was 16 µg/mL (≈ 16.5 µM).

Consider `CC[C@H]1OC(=O)[C@H](C)[C@@H](O[C@H]2C[C@@](C)(OC)[C@@H](OC(=O)NNC(=O)c3ccc(Br)cc3)[C@H](C)O2)[C@H](C)[C@@H](O[C@@H]2O[C@H](C)C[C@H](N(C)C)[C@H]2O)[C@](C)(O)C[C@@H](C)CN(C)[C@H](C)[C@H]2OC(=O)O[C@@]21C`, for which the minimum inhibitory concentration (MIC) in test [1] was determined as 16 µg/mL (≈ 15.7 µM); in test [2] it was 1 µg/mL (≈ 0.984 µM); in test [3] it was 4 µg/mL (≈ 3.94 µM); in test [4] it was 1 µg/mL (≈ 0.984 µM); in test [5] it was 2 µg/mL (≈ 1.97 µM); in test [6] it was 0.12 µg/mL (≈ 0.118 µM). For the same molecule, inhibition of growth in test [7] (MIC) required 4 µg/mL (≈ 3.94 µM).

For the molecule `CC[C@H]1OC(=O)[C@H](C)[C@@H](O[C@H]2C[C@@](C)(OC)[C@@H](OC(=O)NNC(=O)c3ccc(Cl)cc3Cl)[C@H](C)O2)[C@H](C)[C@@H](O[C@@H]2O[C@H](C)C[C@H](N(C)C)[C@H]2O)[C@](C)(O)C[C@@H](C)CN(C)[C@H](C)[C@H]2OC(=O)O[C@@]21C`, the MIC in test [1] was found to be 16 µg/mL (≈ 15.9 µM); in test [2] it was 16 µg/mL (≈ 15.9 µM); in test [3], 4 µg/mL (≈ 3.98 µM); in test [4], 1 µg/mL (≈ 0.994 µM); in test [5], 4 µg/mL (≈ 3.98 µM); in test [6] it was 0.25 µg/mL (≈ 0.249 µM). This molecule registered an MIC in test [7] of 16 µg/mL (≈ 15.9 µM).

As for `CC[C@H]1OC(=O)[C@H](C)[C@@H](O[C@H]2C[C@@](C)(OC)[C@@H](OC(=O)NNC(=O)c3ccc([N+](=O)[O-])cc3)[C@H](C)O2)[C@H](C)[C@@H](O[C@@H]2O[C@H](C)C[C@H](N(C)C)[C@H]2O)[C@](C)(O)C[C@@H](C)CN(C)[C@H](C)[C@H]2OC(=O)O[C@@]21C`, the MIC in test [1] was 32 µg/mL (≈ 32.6 µM); in test [2], 4 µg/mL (≈ 4.07 µM); in test [3] it was 16 µg/mL (≈ 16.3 µM); in test [4] it was 0.25 µg/mL (≈ 0.255 µM); in test [5], 4 µg/mL (≈ 4.07 µM); in test [6], 1 µg/mL (≈ 1.02 µM). The molecule also had an MIC in test [7] of 4 µg/mL (≈ 4.07 µM).

Consider `CC[C@H]1OC(=O)[C@H](C)[C@@H](O[C@H]2C[C@@](C)(OC)[C@@H](OC(=O)NNC(=O)c3cc([N+](=O)[O-])cc([N+](=O)[O-])c3)[C@H](C)O2)[C@H](C)[C@@H](O[C@@H]2O[C@H](C)C[C@H](N(C)C)[C@H]2O)[C@](C)(O)C[C@@H](C)CN(C)[C@H](C)[C@H]2OC(=O)O[C@@]21C`, for which the MIC turned out to be 32 µg/mL (≈ 31.2 µM) in test [1]; 4 µg/mL (≈ 3.89 µM) in test [2]; 16 µg/mL (≈ 15.6 µM) in test [3]; 0.5 µg/mL (≈ 0.487 µM) in test [4]; 4 µg/mL (≈ 3.89 µM) in test [5]; 0.25 µg/mL (≈ 0.243 µM) in test [6]. The MIC in test [7] is 4 µg/mL (≈ 3.89 µM).

For the molecule `CC[C@H]1OC(=O)[C@H](C)[C@@H](O[C@H]2C[C@@](C)(OC)[C@@H](OC(=O)NCCNC(=O)c3ccc(OC)cc3)[C@H](C)O2)[C@H](C)[C@@H](O[C@@H]2O[C@H](C)C[C@H](N(C)C)[C@H]2O)[C@](C)(O)C[C@@H](C)CN(C)[C@H](C)[C@H]2OC(=O)O[C@@]21C`, the minimal inhibitory concentration (MIC) in test [1] is 64 µg/mL (≈ 64.3 µM); in test [2], 16 µg/mL (≈ 16.1 µM); in test [3] it was 32 µg/mL (≈ 32.2 µM); in test [4], 4 µg/mL (≈ 4.02 µM); in test [5] it was 4 µg/mL (≈ 4.02 µM); in test [6], 4 µg/mL (≈ 4.02 µM). It took 4 µg/mL (≈ 4.02 µM) to inhibit growth in test [7] (MIC).

As for `CC[C@H]1OC(=O)[C@H](C)[C@@H](O[C@H]2C[C@@](C)(OC)[C@@H](OC(=O)NCCNC(=O)c3ccccc3OC)[C@H](C)O2)[C@H](C)[C@@H](O[C@@H]2O[C@H](C)C[C@H](N(C)C)[C@H]2O)[C@](C)(O)C[C@@H](C)CN(C)[C@H](C)[C@H]2OC(=O)O[C@@]21C`, the minimum inhibitory concentration (MIC) is 64 µg/mL (≈ 64.3 µM) in test [1]; 8 µg/mL (≈ 8.04 µM) in test [2]; 32 µg/mL (≈ 32.2 µM) in test [3]; 0.5 µg/mL (≈ 0.502 µM) in test [4]; 4 µg/mL (≈ 4.02 µM) in test [5]; 8 µg/mL (≈ 8.04 µM) in test [6]. This molecule yielded a minimal inhibitory concentration (MIC) in test [7] of 64 µg/mL (≈ 64.3 µM).

As for `CC[C@H]1OC(=O)[C@H](C)[C@@H](O[C@H]2C[C@@](C)(OC)[C@@H](OC(=O)NCCNC(=O)c3ccc(OC)c(OC)c3)[C@H](C)O2)[C@H](C)[C@@H](O[C@@H]2O[C@H](C)C[C@H](N(C)C)[C@H]2O)[C@](C)(O)C[C@@H](C)CN(C)[C@H](C)[C@H]2OC(=O)O[C@@]21C`, the MIC in test [1] is 64 µg/mL (≈ 62.4 µM); in test [2], 32 µg/mL (≈ 31.2 µM); in test [3] it was 32 µg/mL (≈ 31.2 µM); in test [4], 2 µg/mL (≈ 1.95 µM); in test [5], 4 µg/mL (≈ 3.9 µM); in test [6], 4 µg/mL (≈ 3.9 µM). Moreover, the lowest concentration to inhibit growth in test [7] (MIC) was 8 µg/mL (≈ 7.8 µM).
